The source of these data is US9447119B2, “Chemical compound for inhibiting the growth and proliferation of human liver cancer cells HepG2 and method for synthesizing it” (priority 2015, dated 2016).

Series [1] deals with HepG2 (Hepatocellular carcinoma cells). Description: Cytotoxicity evaluation using viability assay (crystal violet) against HepG2 cell line. It is filed as cell-based, human. As to conditions: for Viability %: 48 hours; for IC50: Homo sapiens, HepG2 cells, 48 hours incubation, crystal violet viability, read-out: inhibition concentration value (IC50) against HepG2. From the text: HepG2 cells (human cell line of a well differentiated hepatocellular carcinoma isolated from a liver biopsy of a person) were obtained from the American Type Culture Collection (ATCC). The chemicals used were: Dimethyl sulfoxide (DMSO), crystal violet and trypan blue dye, purchased from Sigma, St. Louis, Mo., USA; DMEM, RPMI-1640, FBS, HEPES buffer solution, L-glutamine, gentamycin and 0.25% Trypsin-EDTA, purchased from BioWhittaker®, Lonza, Belgium; and Crystal violet stain (1%), composed of 0.5% (w/v) crystal violet and 50% methanol, made up to volume with ddH20 and filtered through a Whatmann No. I filter paper.
In the cytotoxicity assay, the cells were propagated in Dulbecco's modified Eagle's medium (DMEM) supplemented with 10% heat-inactivated fetal bovine serum, 1% L-glutamine, HEPES buffer and 50 μg/ml gentamycin. All cells were maintained at 37° C. in a humidified atmosphere with 5% C02 and were subcultured two times a week.
Cell toxicity was monitored by determining the effect of the test samples on cell morphology and cell viability.
For cytotoxicity assay, the cells were seeded in a 96-well plate at a cell concentration of 1×10^4 cells per well in 100 μl of growth medium. Fresh medium containing different concentrations of the test sample was added after 24 hours following seeding. Serial two-fold dilutions of the tested chemical compound were added to confluent cell monolayers dispensed into 96-well, flat-bottomed microtiter plates (Falcon, N.J., USA) using a multichannel pipette. The microtiter plates were incubated at 37° C. in a humidified incubator with 5% C02 for a period of 48 hours. Three wells were used for each concentration of the test sample. Control cells were incubated without test sample and with or without DMSO. The little percentage of DMSO present in the wells (maximal 0.1%) was found not to affect the experiment. After incubation of the cells for 24 hours at 37° C., various concentrations of sample (50, 25, 12.5, 6.25, 3.125 & 1.56 μg) were added, and the incubation was continued for 48 hours and viable cells yield was determined by a colorimetric method.
In brief, after the end of the incubation period, media were aspirated and the crystal violet solution (1%) was added to each well for at least 30 minutes. The stain was removed and the plates were rinsed using tap water until all excess stain was removed. Glacial acetic acid (30%) was then added to all wells and mixed thoroughly and then the absorbance of the plates was measured after being gently shaken on a Microplate reader (TECAN, Inc.), using a test wavelength of 490 nm. All results were corrected for background absorbance detected in wells without added stain. Treated samples were compared with the cell control in the absence of the tested compounds. All experiments were carried out in triplicate.
The cell cytotoxic effect of each tested compound was calculated according to the rapid colorimetric assay for cellular growth and survival: application to proliferation and cytotoxicity assay, published by T. Mosmann in the Journal of Immunology Methods, 1983, 65:55-63; and the antiviral activity of medicinal plants of Nilgriris, published by P. Vijayan et al. in the Indian Journal of Medical Research, 2004, 120: 24-29.

For series [2] the test system is unchanged. Described as above. In kind it is cell-based, human. The following applies: 48 hours.

≈ marks a conversion by molar mass, not a printed value.

Take `COc1cccc2c1C(=O)c1c(O)c3c(c(O)c1C2=O)C[C@@](O)(C(=O)CO)C[C@@H]3O[C@H]1C[C@H](N)[C@H](O)[C@H](C)O1` [Doxorubicin, reference compound]: the Viability % was 48.25% in series [1] (HepG2, sample conc. 1.56 μg); 30.32% in series [1] (HepG2, sample conc. 3.125 μg); 21.03% in series [1] (HepG2, sample conc. 6.25 μg); 16.90% in series [1] (HepG2, sample conc. 12.5 μg); 14.29% in series [1] (HepG2, sample conc. 25 μg); 10.95% in series [1] (HepG2, sample conc. 50 μg). Also, the Viability % in series [2] (HepG2, sample conc. 0.78 μg) was determined as 57.44%. For the same compound, the IC50 in series [1] is 1.2 mg/L (≈ 2.21 µM).
The term melting point denotes the temperature of the solid-liquid transition. In the case of `O=c1c2c3c(sc2nc2sc(Nc4ccc([N+](=O)[O-])cc4)nn12)CCCCC3` [compound of the invention, 2-((4-Nitrophenyl)amino)-7,8,9,10-tetrahydrocyclohepta[4,5]thieno[2,3-d][1,3,4]thiadiazolo[3,2-a]pyrimidin-11(6H)-one], the melting point is more than 300 °C. The Viability % in series [1] (HepG2, sample conc. 1.56 μg) turned out to be 32.86%. Besides, the Viability % in series [1] (HepG2, sample conc. 3.125 μg) worked out at 23.17%. Also, the Viability % in series [1] (HepG2, sample conc. 6.25 μg) is on record as 13.92%. The compound also displayed a Viability % in series [1] (HepG2, sample conc. 12.5 μg) of 10.04%. In series [1] (HepG2, sample conc. 25 μg), this compound showed a Viability % of 7.52%. The compound further came in with a Viability % in series [1] (HepG2, sample conc. 50 μg) of 3.79%. Besides, the IC50 in series [1] worked out at 0.7 mg/L (≈ 1.69 µM). Moreover, the Viability % in series [2] (HepG2, sample conc. 0.39 μg) stood at 64.21%. The compound further registered a Viability % in series [2] (HepG2, sample conc. 0.78 μg) of 45.74%.
